From patent publication US10925876B2, “Methods for using triazolo-pyrazinyl soluble guanylate cyclase activators in fibrotic disorders” (Merck Sharp & Dohme Corp., priority 2016, dated 2021)

The compounds below were run against T1, sGC α1/β1 heterodimer (Homo sapiens, UniProt Q02108+Q02153) (assay: Cell-Based sGC Functional Assay (CASA Assay), cGMP generation in CHO-K1/sGC cells). Details: maximum cGMP production of Compound A set to 100% activation, read-out: % Act. (percent activation relative to Compound A).
T1 construct: expressed in transfected cells
T1 sequence (Q02108 1-690): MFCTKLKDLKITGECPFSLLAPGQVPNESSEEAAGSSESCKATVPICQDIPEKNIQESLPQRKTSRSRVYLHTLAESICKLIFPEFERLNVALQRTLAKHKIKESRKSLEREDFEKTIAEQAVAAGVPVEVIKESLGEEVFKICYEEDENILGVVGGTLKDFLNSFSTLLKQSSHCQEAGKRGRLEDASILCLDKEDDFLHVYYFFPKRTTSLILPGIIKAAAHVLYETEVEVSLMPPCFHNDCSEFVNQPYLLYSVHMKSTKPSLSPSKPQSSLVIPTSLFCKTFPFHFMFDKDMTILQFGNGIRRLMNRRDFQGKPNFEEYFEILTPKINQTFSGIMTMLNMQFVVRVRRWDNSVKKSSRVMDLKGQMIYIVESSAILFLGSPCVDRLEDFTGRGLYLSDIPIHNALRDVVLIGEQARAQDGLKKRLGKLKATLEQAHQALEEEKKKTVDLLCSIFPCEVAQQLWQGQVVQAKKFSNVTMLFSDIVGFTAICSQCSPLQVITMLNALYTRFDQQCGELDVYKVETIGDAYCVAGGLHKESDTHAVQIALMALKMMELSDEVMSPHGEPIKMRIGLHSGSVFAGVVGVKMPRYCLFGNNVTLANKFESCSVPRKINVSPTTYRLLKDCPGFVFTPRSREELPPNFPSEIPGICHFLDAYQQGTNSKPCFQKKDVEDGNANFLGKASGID
T1 sequence (Q02153 1-619): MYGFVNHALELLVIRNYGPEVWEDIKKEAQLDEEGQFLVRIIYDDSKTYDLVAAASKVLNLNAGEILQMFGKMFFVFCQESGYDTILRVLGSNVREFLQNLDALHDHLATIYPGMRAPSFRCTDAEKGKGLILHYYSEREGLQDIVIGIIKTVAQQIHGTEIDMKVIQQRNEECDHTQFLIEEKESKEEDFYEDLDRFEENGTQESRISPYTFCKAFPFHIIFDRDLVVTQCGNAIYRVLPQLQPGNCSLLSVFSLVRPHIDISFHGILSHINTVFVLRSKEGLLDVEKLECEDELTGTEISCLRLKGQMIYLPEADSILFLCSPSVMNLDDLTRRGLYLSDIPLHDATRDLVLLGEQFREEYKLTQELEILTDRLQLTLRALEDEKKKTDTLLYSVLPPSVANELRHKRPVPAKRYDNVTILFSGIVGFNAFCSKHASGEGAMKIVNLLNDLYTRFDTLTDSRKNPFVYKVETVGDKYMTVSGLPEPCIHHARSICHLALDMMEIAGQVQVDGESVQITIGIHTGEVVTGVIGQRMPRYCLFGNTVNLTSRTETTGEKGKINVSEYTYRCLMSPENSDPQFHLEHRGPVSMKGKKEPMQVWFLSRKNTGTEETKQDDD
Outline: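 CHO-K1 cells stably expressing human sGC α1/β1, 4×10^5/mL in EBSS with 5 mM MgCl2, 10 mM HEPES, 0.05% BSA, 0.5 mM IBMX, 2.5% DMSO; compounds 1 h at 37 °C ± 1 μM DETA-NO. cGMP by HTRF, expressed as % of reference Compound A maximum; IP and max fold induction from 4P fit.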
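Note: reference Compound A is a published heme-dependent sGC activator.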

Structure (SMILES) | Emax [%]
Cc1ccc(C2(C)C(=O)Nc3nc(-c4cn5ncnc5c(CCCC(F)(F)F)n4)nc(N)c32)nc1 (stereo not drawn) [Example 46B, 4-amino-5-methyl-5-(5-methylpyridin-2-yl)-2-(8-(4,4,4-trifluorobutyl)-[1,2,4]triazolo[1,5-a]pyrazin-6-yl)-5H-pyrrolo[2,3-d]pyrimidin-6(7H)-one] | 67
CCCc1nc(-c2nc(N)c3c(n2)NC(=O)C3(C)c2ccc(Cl)cc2)cn2nc(C)nc12 (stereo not drawn) [Example 93A, 4-amino-5-(4-chlorophenyl)-5-methyl-2-(2-methyl-8-propyl-[1,2,4]triazolo[1,5-a]pyrazin-6-yl)-5H-pyrrolo[2,3-d]pyrimidin-6(7H)-one] | 159
CC1(c2ccc(C#N)cn2)C(=O)Nc2nc(-c3cn4ncnc4c(CCC(F)(F)C(F)(F)F)n3)nc(O)c21 (stereo not drawn) [Example 131A, 6-(4-hydroxy-5-methyl-6-oxo-2-(8-(3,3,4,4,4-pentafluorobutyl)-[1,2,4]triazolo[1,5-a]pyrazin-6-yl)-6,7-dihydro-5H-pyrrolo[2,3-d]pyrimidin-5-yl)nicotinonitrile] | 99
CC1(c2ccc(Cl)cc2)C(=O)Nc2nc(-c3cn4ncnc4c(CCC(F)(F)C(F)(F)F)n3)nc(O)c21 (stereo not drawn) [Example 126A, 5-(4-chlorophenyl)-4-hydroxy-5-methyl-2-(8-(3,3,4,4,4-pentafluorobutyl)-[1,2,4]triazolo[1,5-a]pyrazin-6-yl)-5H-pyrrolo[2,3-d]pyrimidin-6(7H)-one] | 102
CCCc1nc(-c2nc(O)c3c(n2)NC(=O)C3(C)c2ccc(Cl)cc2)cn2nc(C)nc12 (stereo not drawn) [Example 168A, 5-(4-chlorophenyl)-4-hydroxy-5-methyl-2-(2-methyl-8-propyl-[1,2,4]triazolo[1,5-a]pyrazin-6-yl)-5H-pyrrolo[2,3-d]pyrimidin-6(7H)-one] | 77
Cc1nc2c(CCC(F)(F)C(F)(F)F)nc(-c3nc(N)c4c(n3)NC(=O)C4(C)c3ccc(F)cn3)cn2n1 (stereo not drawn) [Example 89B, 4-amino-5-(5-fluoropyridin-2-yl)-5-methyl-2-(2-methyl-8-(3,3,4,4,4-pentafluorobutyl)-[1,2,4]triazolo[1,5-a]pyrazin-6-yl)-5H-pyrrolo[2,3-d]pyrimidin-6(7H)-one] | 109
Nc1nc(-c2cn3ncnc3c(CCCC(F)(F)F)n2)nc2c1C(c1ncc(C(F)(F)F)cn1)(C1CC1)C(=O)N2 (single isomer, unassigned) [Example 180B, 4-amino-5-cyclopropyl-2-(8-(4,4,4-trifluorobutyl)-[1,2,4]triazolo[1,5-a]pyrazin-6-yl)-5-(5-(trifluoromethyl)pyrimidin-2-yl)-5,7-dihydro-6H-pyrrolo[2,3-d]pyrimidin-6-one] | 97
CC1(c2ccc(F)c(F)c2)C(=O)Nc2nc(-c3cn4ncnc4c(CCC(F)(F)F)n3)nc(N)c21 (stereo not drawn) [Example 84B, 4-amino-5-(3,4-difluorophenyl)-5-methyl-2-(8-(3,3,3-trifluoropropyl)-[1,2,4]triazolo[1,5-a]pyrazin-6-yl)-5H-pyrrolo[2,3-d]pyrimidin-6(7H)-one] | 101
Nc1nc(-c2cn3ncnc3c(CCC(F)(F)C(F)(F)F)n2)nc2c1C(c1ccc(C(F)(F)F)cn1)(C1CC1)C(=O)N2 (stereo not drawn) [Example 15A, 4-amino-5-cyclopropyl-2-(8-(3,3,4,4,4-pentafluorobutyl)-[1,2,4]triazolo[1,5-a]pyrazin-6-yl)-5-(5-(trifluoromethyl)pyridin-2-yl)-5H-pyrrolo[2,3-d]pyrimidin-6(7H)-one] | 139
CC1(c2ccc(Cl)c(F)c2)C(=O)Nc2nc(-c3cn4ncnc4c(CCC(F)(F)C(F)(F)F)n3)nc(N)c21 (stereo not drawn) [Example 5B, 4-amino-5-(4-chloro-3-fluorophenyl)-5-methyl-2-(8-(3,3,4,4,4-pentafluorobutyl)-[1,2,4]triazolo[1,5-a]pyrazin-6-yl)-5H-pyrrolo[2,3-d]pyrimidin-6(7H)-one] | 147
O=C1Nc2nc(-c3cn4ncnc4c(CCC(F)(F)C(F)(F)F)n3)nc(O)c2C1(c1ccc(F)c(F)c1)C1CC1 (stereo not drawn) [Example 123A, 5-cyclopropyl-5-(3,4-difluorophenyl)-4-hydroxy-2-(8-(3,3,4,4,4-pentafluorobutyl)-[1,2,4]triazolo[1,5-a]pyrazin-6-yl)-5H-pyrrolo[2,3-b]pyrimidin-6(7H)-one] | 78
COc1ccc(C2(C)C(=O)Nc3nc(-c4cn5ncnc5c(CCCC(F)(F)F)n4)nc(N)c32)nc1 (stereo not drawn) [Example 40A, 4-amino-5-(5-methoxypyridin-2-yl)-5-methyl-2-(8-(4,4,4-trifluorobutyl)-[1,2,4]triazolo[1,5-a]pyrazin-6-yl)-5H-pyrrolo[2,3-d]pyrimidin-6(7H)-one] | 130
Nc1nc(-c2cn3ncnc3c(CCCC(F)(F)F)n2)nc2c1C(c1ccc(F)cc1)(C1CC1)C(=O)N2 (stereo not drawn) [Example 30B, 4-amino-5-cyclopropyl-5-(4-fluorophenyl)-2-(8-(4,4,4-trifluorobutyl)-[1,2,4]triazolo[1,5-a]pyrazin-6-yl)-5H-pyrrolo[2,3-d]pyrimidin-6(7H)-one] | 117
Nc1nc(-c2cn3ncnc3c(CCCC(F)(F)F)n2)nc2c1C(c1ccc(C(F)(F)F)cc1)(C1CC1)C(=O)N2 (stereo not drawn) [Example 35A, 4-amino-5-cyclopropyl-2-(8-(4,4,4-trifluorobutyl)-[1,2,4]triazolo[1,5-a]pyrazin-6-yl)-5-(4-(trifluoromethyl)phenyl)-5H-pyrrolo[2,3-d]pyrimidin-6(7H)-one] | 164
CC1(c2ccc(F)c(Cl)c2)C(=O)Nc2nc(-c3cn4ncnc4c(CCCC(F)(F)F)n3)nc(N)c21 (stereo not drawn) [Example 42B, 4-amino-5-(3-chloro-4-fluorophenyl)-5-methyl-2-(8-(4,4,4-trifluorobutyl)-[1,2,4]triazolo[1,5-a]pyrazin-6-yl)-5H-pyrrolo[2,3-d]pyrimidin-6(7H)-one] | 82
CCCCc1nc(-c2nc(N)c3c(n2)NC(=O)C3(C)c2ccc(Cl)cc2)cn2ncnc12 (stereo not drawn) [Example 63A, 4-amino-2-(8-butyl-[1,2,4]triazolo[1,5-a]pyrazin-6-yl)-5-(4-chlorophenyl)-5-methyl-5H-pyrrolo[2,3-d]pyrimidin-6(7H)-one] | 187
CC1(c2ccc(F)cn2)C(=O)Nc2nc(-c3cn4ncnc4c(CCC(F)(F)F)n3)nc(N)c21 (stereo not drawn) [Example 81B, 4-amino-5-(5-fluoropyridin-2-yl)-5-methyl-2-(8-(3,3,3-trifluoropropyl)-[1,2,4]triazolo[1,5-a]pyrazin-6-yl)-5H-pyrrolo[2,3-d]pyrimidin-6(7H)-one] | 115
Cc1ccc(C2(C)C(=O)Nc3nc(-c4cn5ncnc5c(CCCC(F)(F)F)n4)nc(O)c32)nc1 (stereo not drawn) [Example 149B, 4-hydroxy-5-methyl-5-(5-methylpyridin-2-yl)-2-(8-(4,4,4-trifluorobutyl)-[1,2,4]triazolo[1,5-a]pyrazin-6-yl)-5H-pyrrolo[2,3-d]pyrimidin-6(7H)-one] | 63
CC1(c2cnc(C(F)(F)F)cn2)C(=O)Nc2nc(-c3cn4ncnc4c(CCCC(F)(F)F)n3)nc(N)c21 (stereo not drawn) [Example 50B, 4-amino-5-methyl-2-(8-(4,4,4-trifluorobutyl)-[1,2,4]triazolo[1,5-a]pyrazin-6-yl)-5-(5-(trifluoromethyl)pyrazin-2-yl)-5H-pyrrolo[2,3-d]pyrimidin-6(7H)-one] | 191
Nc1nc(-c2cn3ncnc3c(CCC(F)(F)C(F)(F)F)n2)nc2c1C(c1ccc(F)c(F)c1)(C1CC1)C(=O)N2 (stereo not drawn) [Example 6A, 4-amino-5-cyclopropyl-5-(3,4-difluorophenyl)-2-(8-(3,3,4,4,4-pentafluorobutyl)-[1,2,4]triazolo[1,5-a]pyrazin-6-yl)-5H-pyrrolo[2,3-d]pyrimidin-6(7H)-one] | 140
CC1(c2ccc(Cl)cc2)C(=O)Nc2nc(-c3cn4ncnc4c(CCCC(F)(F)F)n3)nc(N)c21 (stereo not drawn) [Example 29A, 4-amino-5-(4-chlorophenyl)-5-methyl-2-(8-(4,4,4-trifluorobutyl)-[1,2,4]triazolo[1,5-a]pyrazin-6-yl)-5H-pyrrolo[2,3-d]pyrimidin-6(7H)-one] | 101
